Assays:
[1] = system: prostacyclin receptor (CNS) in the thalamus ([^3 H] isocarbacyclin receptor); assay: Displacement test relative to tritium-labelled isocarbacyclin, thalamus (CNS), autoradiography of frozen brain sections; assay type: binding, rat; settings: for Binding ratio to [^3 H] isocarbacyclin receptor: thalamus (CNS), 10 nM [^3 H]isocarbacyclin, 4° C., 2 h, pH 7.4
Description: (§1) Blood ingredients were removed from the brain of a rat by systemic perfusion, and were frozen, thus preparing a frozen section having a thickness of 10 μm. This section was incubated with 10 nM [^3 H]isocarba cyclin and isocarbacyclin derivatives at various concentrations, at 4° C. for two hours in 50 mM Tris/HCl pH 7.4 and 20 mM MgCl2 solution. After incubation and washing, the solution was dried, thereby preparing an autoradiography film of the section. A displacement value for each derivative was determined by quantitative analysis of the autoradiography (n=at least 4).
1) The results in the thalamus (CNS) are shown in Tables 1 and 2 for the following compounds: [drawing 27]

[2] = target: T1, prostacyclin receptor (PNS) in the medulla oblongata nucleus ([^3 H] isocarbacyclin receptor) (Rattus norvegicus, UniProt P43253); assay: Displacement test relative to tritium-labelled isocarbacyclin, medulla oblongata nucleus (PNS), autoradiography of frozen brain sections; settings: 10 nM [^3 H]isocarbacyclin, 4° C., 2 h, pH 7.4, read-out: Binding ratio to [^3 H] isocarbacyclin receptor; for activity at 0.3 µM: un-labelled compound 3 × 10^-7 M; for activity at 0.03 µM: un-labelled compound 3 × 10^-8 M; for activity at 1 µM: un-labelled compound 10^-6 M; for activity at 0.01 µM: un-labelled compound 10^-8 M; for activity at 0.003 µM: un-labelled compound 3 × 10^-9 M; for activity at 0.1 µM: un-labelled compound 10^-7 M
T1 construct: Blood ingredients were removed from the brain of a rat by systemic perfusion; from tissue; host or cells: rat brain, frozen sections, medulla oblongata nucleus (nucleus solitarius) read by autoradiography
T1 sequence (P43253 whole entry, the tested form may be a part): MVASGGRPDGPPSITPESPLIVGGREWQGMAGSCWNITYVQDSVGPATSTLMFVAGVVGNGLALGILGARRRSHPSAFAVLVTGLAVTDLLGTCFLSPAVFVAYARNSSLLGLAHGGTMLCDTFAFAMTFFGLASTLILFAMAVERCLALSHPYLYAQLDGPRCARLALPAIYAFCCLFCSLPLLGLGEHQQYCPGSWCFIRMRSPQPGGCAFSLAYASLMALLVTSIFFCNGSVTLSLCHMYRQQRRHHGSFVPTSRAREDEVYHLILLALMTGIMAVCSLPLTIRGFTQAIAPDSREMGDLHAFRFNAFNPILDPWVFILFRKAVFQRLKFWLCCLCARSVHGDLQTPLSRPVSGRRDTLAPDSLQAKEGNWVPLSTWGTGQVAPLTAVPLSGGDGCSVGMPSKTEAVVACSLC
Description: as §1

platelets = assay: Platelet aggregation inhibiting activity (ADP-induced, platelet rich plasma); assay type: cell-based, rat; settings: for IC50: rat platelet rich plasma, 100 μM ADP, 5 μl, 37° C., 1 min preincubation
Description: Blood was totally taken from the abdominal aorta of an anesthetized rat (body weight: 500 g). Then, 1/10 volume part of 3.8% sodium citrate was added to the sampled blood and the mixture was centrifugally separated at 1,000 rpm for ten minutes to achieve an upper layer of platelet rich plasma (PRP). The lower layer was then further centrifugally separated at 3,000 rpm for ten minutes to prepare platelet poor plasma (PPP). The number of platelets in PRP was measured, and PPP was diluted to adjust the number to […] to serve as a platelet solution. The platelet solution was placed in an amount of 90 μl into a cuvette, and the drug to be tested in an amount of […] was added for incubation at 37° C. for one minute. Then, an aggregation agent (100 μM ADP) in an amount of 5 μl was added to cause aggregation of platelets, and changes in […] were measured. Control of aggregation activity was conducted by using turbidity upon addition of physiological saline.

[3] = system: platelets aggregation / vasodilation; settings: compared with natural prostacyclin; cited from earlier work
[4] = neutral or oxidizing conditions; cited from earlier work
[5] = system: binding site of iloprost in platelets; settings: cited from earlier work
[6] = system: prostacyclin binding sites in cerebral hemisphere; settings: autoradiography, frozen cryostat sections; cited from earlier work
nervous system = settings: cited from earlier work
dopamine D1 receptors = settings: cited from earlier work
[7] = un-labelled compound 3 × 10^-7 M, 0.3 µM
[8] = un-labelled compound 3 × 10^-8 M, 0.03 µM
[9] = un-labelled compound 3 × 10^-9 M
[10] = un-labelled compound 10^-6 M, 1 µM
[11] = un-labelled compound 10^-7 M, 0.1 µM

Row | SMILES | Binding ratio to [^3 H] isocarbacyclin receptor [1, 7] [%] | Binding ratio to [^3 H] isocarbacyclin receptor [1, 8] [%] | Binding ratio to [^3 H] isocarbacyclin receptor [1, 9] [%] | Binding ratio to [^3 H] isocarbacyclin receptor [1, 10] [%] | Binding ratio to [^3 H] isocarbacyclin receptor [1, 11] [%] | Binding ratio to [^3 H] isocarbacyclin receptor ([1]; un-labelled compound 10^-8 M) [%] | activity at 0.3 µM [2] [%] | activity at 0.03 µM [2] [%] | activity at 1 µM [2] [%] | activity at 0.01 µM [2] [%] | IC50 (platelets) [nM] | activity at 0.003 µM [2] [%] | activity at 0.1 µM [2] [%] | also measured
1 | Cc1cccc(C[C@@H](O)/C=C/[C@@H]2[C@H]3CC(CCCCC(=O)O)=C[C@H]3C[C@H]2O)c1 [Compound A, 15R-16-(3-methylphenyl)-17, 18, 19, 20-tetranolisocarbacycline] | 25.4 | 67.0 | 97.4 | 15.7 | 48.3 | 89.2 | 69.8 | 79.3 | 52.5 | 74.1 | > 400 | – | – | binding to the thalamic prostacyclin receptor (CNS) ([1]; in words): firmly bound to the thalamic prostacyclin receptor (CNS); activity relative to the prostacyclin receptor (CNS) in the thalamus ([1]; in words, compared with isocarbacyclin): an activity stronger than that of isocarbacyclin; activity at 0.001 µM ([2]; un-labelled compound 10^-9 M (so in the source)): 84.7%; platelet aggregation inhibiting activity (platelets; in words): almost no platelet aggregation inhibiting activity
2 | Cc1cccc(C[C@H](O)/C=C/[C@@H]2[C@H]3CC(CCCCC(=O)O)=C[C@H]3C[C@H]2O)c1 [Compound B] | 36.6 | 84.6 | 98.6 | 20.1 | 58.0 | 93.9 | 39.5 | 80.5 | 33.8 | 88.3 | 19 | 96.6 | 54.8 | –
3 | Cc1cccc(CCC[C@@H](O)/C=C/[C@@H]2[C@H]3CC(CCCCC(=O)O)=C[C@H]3C[C@H]2O)c1 [Compound C] | 73.3 | 93.8 | 98.7 | 48.1 | 85.9 | 96.1 | 71.8 | 89.9 | 53.5 | 92 | – | 95 | 81.3 | –
4 | Cc1cccc(CCC[C@H](O)/C=C/[C@@H]2[C@H]3CC(CCCCC(=O)O)=C[C@H]3C[C@H]2O)c1 [Compound D] | 94.1 | 98.4 | 101.1 | 88.5 | 100.8 | 99.8 | 45.8 | 80.6 | 34.4 | 92.8 | – | 96.9 | 55.6 | –
5 | CCCCC[C@H](O)/C=C/[C@@H]1[C@H]2CC(CCCCC(=O)O)=C[C@H]2C[C@H]1O [Isocarbacyclin, 9(O)-methano-Δ^6(9α) prostaglandin I1] | 34.7 | 76.4 | 99.2 | 19.3 | 62.7 | 94.5 | 22.5 | 57.3 | 8 | 79 | 2.5 | 94 | – | platelets aggregation inhibiting functions and vasodilating antihypertensive effects [3]: strong platelets aggregation inhibiting functions and vasodilating antihypertensive effects and other biological activities well comparable with those of natural prostacyclin
6 | CCCCC[C@H](O)/C=C/[C@@H]1[C@H]2C/C(=C/CCCC(=O)O)O[C@H]2C[C@H]1O [Natural prostacyclin] | – | – | – | – | – | – | – | – | – | – | – | – | – | chemical stability [4]: easily inactivated under neutral or oxidizing conditions
7 | CCCCC[C@H](O)/C=C/[C@H]1[C@H](O)CC(=O)[C@@H]1CCCCCCC(=O)O [Prostaglandin E1, reference compound] | – | – | – | – | – | – | – | – | – | – | 63 | – | – | reaction with the binding site of iloprost [5]: the binding site of iloprost reacts also with PGE1
8 | CC#CCC(C)[C@H](O)/C=C/[C@@H]1[C@H]2C/C(=C/CCCC(=O)O)C[C@H]2C[C@H]1O (some centres unmarked) [[^3 H] iloprost] | – | – | – | – | – | – | – | – | – | – | – | – | – | prostacyclin binding sites found [6]: prostacyclin binding sites in corpus striatum, amygdala, hippocampus and part of the cerebral cortex
9 | CC#CCC(C)[C@H](O)/C=C/[C@@H]1[C@H]2C/C(=C/CCCC(=O)O)C[C@H]2C[C@H]1O (some centres unmarked) [iloprost] | – | – | – | – | – | – | – | – | – | – | – | – | – | effects on the nervous system (nervous system): sedation, anticonvulsation, antihypoxemia (prolongation effects in hypoxemia) and synchronizing induction effects of brain waves antagonized by amphetamine; prevention of the binding of dopamine D1 receptors (dopamine D1 receptors): prevention of the binding of dopamine D1 receptors
